# Literature values, collected in article PMC12122562, “Phase 1 studies of the indenoisoquinolines LMP776 and LMP744 in patients with solid tumors and lymphomas” (Cancer Chemotherapy and Pharmacology, 2025).
# Like-named read-outs stand apart in the source and are kept apart here.
# Key:
# [1] = tested on: patients with advanced solid tumors; conditions: cited from earlier work
# advanced solid tumors = tested on: advanced solid tumors; design: method as in PMID 27169793; conditions: cited from earlier work
# [2] = tested on: naturally occurring lymphomas; design: method as in PMID 30061364; conditions: canines with lymphomas; cited from earlier work
# [3] = tested on: PTEN-null glioblastoma cells; design: method as in PMID 37706203; conditions: combined with the PARP inhibitor niraparib; cited from earlier work
structure (smiles),measurement,setting,value
COc1cc2c3c(n(CCCN4CCOCC4)c(=O)c2cc1OC)-c1cc2c(cc1C3=O)OCO2 [LMP400],"Nausea, prevalence",[1],5%
same,"Alanine aminotransferase increased, patients","[1]; grade 2, n=21, ref 1 (suppl.)",3
same,"Anemia, patients","[1]; grade 2, n=21, ref 1 (suppl.)",8
same,"Aspartate aminotransferase increased, patients","[1]; grade 2, n=21, ref 1 (suppl.)",2
same,"Blood bilirubin increased, patients","[1]; grade 2, n=21, ref 1 (suppl.)",2
same,"Diarrhea, patients","[1]; grade 2, n=21, ref 1 (suppl.)",1
same,"Dyspepsia, patients","[1]; grade 2, n=21, ref 1 (suppl.)",1
same,"Fatigue, patients","[1]; grade 2, n=21, ref 1 (suppl.)",3
same,"Hyperkalemia, patients","[1]; grade 2, n=21, ref 1 (suppl.)",1
same,"Hypophosphatemia, patients","[1]; grade 2, n=21, ref 1 (suppl.)",1
same,"Lethargy, patients","[1]; grade 2, n=21, ref 1 (suppl.)",1
same,"Lymphocyte count decreased, patients","[1]; grade 2, n=21, ref 1 (suppl.)",4
same,"Nausea, patients","[1]; grade 2, n=21, ref 1 (suppl.)",1
same,"Neutropenia, patients","[1]; grade 2, n=21, ref 1 (suppl.)",1
same,"Weight loss, patients","[1]; grade 2, n=21, ref 1 (suppl.)",1
same,"White blood cell count decreased, patients","[1]; grade 2, n=21, ref 1 (suppl.)",1
same,"Anemia, patients","[1]; grade 3, n=21, ref 1 (suppl.)",2
same,"Fatigue, patients","[1]; grade 3, n=21, ref 1 (suppl.)",1
same,"Febrile Neutropenia, patients","[1]; grade 3, n=21, ref 1 (suppl.)",2
same,"Lymphocyte count decreased, patients","[1]; grade 3, n=21, ref 1 (suppl.)",3
same,"White blood cell count decreased, patients","[1]; grade 3, n=21, ref 1 (suppl.)",1
same,"Neutropenia, patients","[1]; grade 4, n=21, ref 1 (suppl.)",3
same,"Platelet count decreased, patients","[1]; grade 4, n=21, ref 1 (suppl.)",3
same,"White blood cell count decreased, patients","[1]; grade 4, n=21, ref 1 (suppl.)",2
same,Best response,advanced solid tumors,stable disease
same,Responders,[2],9 of 27
same,Response rate,[2],33.3%
same,Cell killing activity in combination,[3],synergistic cell killing activity
